Assay results from US12168008B2, “Oxabicycloheptanes for modulation of immune response” (LIXTE BIOTECHNOLOGY, INC., priority 2016, dated 2024).

Legend:
[1] = test system: CD8+ or CD4+ T cells; test: Human allogeneic mixed lymphocyte reaction, T cells with monocyte-derived dendritic cells (Example 8); type: cell-based
Procedure: The effect of LB-100 on T-cells was assessed in human allogeneic mixed lymphocyte reactions, in which CD8+ or CD4+ T cells were co-cultured with […] monocyte-derived dendritic cells. […] The effect of LB-100 plus anti-PD-1 antibody was investigated on CD4+ T cells in the same assay.

[2] = test system: Naïve CD4 cells; test: T cell stimulation and skewing of naive CD4 cells; type: cell-based, mouse
Procedure: Naïve CD4 cells were isolated from mice splenocytes and activated in vitro with anti-CD3 and CD28 in the presence of TGF-β or IL4 to induce development of Treg or Th2 CD4+ cells respectively. After 72 hours, intranuclear expressions of Foxp3 or GATA3 were quantitated by flow cytometry to determine percentage of Treg or Th2 cells respectively. […] In addition, the relative proportion of Th2 and Th1 CD4+ cells was quantified by labeling for T-bet. […] Next, the functional consequence of Th1 CD4+ cell with LB-100 treatment was explored. […] This was shown with both intracellular staining (FIG. 38D) and measurement of cytokine secretion (FIG. 38E-F).
T cell stimulation and skewing—Naïve CD4 cells were isolated from mice splenocytes (StemCell). Cells were activated for 3 days using immobilized anti-CD3 (10 ug/ml) and soluble anti-CD28 (2 ug/ml). Skewing conditions were as follows: TH1, 1 .ig/mL anti-IL4, 5 ng/mL IL2, and 10 ng/mL IL12; TH2, 1 .ig/mL anti-IFN-7, 5 ng/mL IL2, and 10 ng/mL IL4; Treg, 1 .ig/mL anti-IFNγ, and 1 ig/mL anti-IL4, and 2 ng/mL TGFβ1. Bead-based multianalyte flow immunoassays (BD Bioscience) were used to measure cytokine production in the supernatant per manufacturer's instruction. Absolute cell numbers were quantified with flow cytometry using counting beads (Biolegend).

[3] = test system: CD4+ T cells; test: Human mixed lymphocyte reaction (Example 13); type: cell-based
Procedure: FIG. 39A. DCs were induced from purified monocytes by culturing in IL4 and GM-CSF for 7 days. 10^5 purified CFSE labelled CD4+ T cells were then co-cultured with 10^4 allogenic DCs in the presence of a titration of LB-100 in duplicates or triplicates for 5 days. LB-100 was replenished on day 3. Supernatants were collected on day 5 and measured for IFN-γ production. FACS analysis was performed on the cultured cells.
In vitro activity of LB-100 in human mixed lymphocytes reactions: To further confirm the immune-modulating effect of LB-100 has clinical utility, mixed lymphocyte reactions (MLRs) were performed using PBMC from healthy human donors. Monocyte derived dendritic cells were co-cultured with allogenic CD4+ T cells labelled with cytosolic dye CFSE. LB-100 was given on the day of co-culture (Day 0) and again on Day 3. Proliferation and IFN-γ secretion by CD4 T cells were assessed on Day 5 (FIG. 39A). There was a significant increase in CD4 T cell proliferation, as measured by the percentage of dividing cells, with LB-100 treatment at 1 μM (31% compared to 20% in controls) (FIG. 39B). There was also a trend towards increased proliferation at lower LB100 concentrations (in the sub-micromolar range). […] Also examined was the effect of lineage differentiation in CD4 T cells by labeling for T-bet. […] Next tested whether LB-100 could enhance IFN-γ secretion in vitro in combination with PD1 blockade using Nivolumab. A similar MLR assay was performed with LB-100.
Human mixed lymphocyte reaction—as previously described in 39. Dendritic cells (DCs) were generated by culturing monocytes isolated from PBMC using a monocyte isolation kit (StemCell) in vitro for 7 days with 500U/ml interleukin-4 (IL-4) and 250 U/ml GM-CSF (R&D Systems). CD4+ T cells (1×10^5) isolated with CD4 isolation kit (StemCell) and labeled with CFSE (ThermoFisher) were co-cultured with allogeneic DCs (1×10^4). At the initiation of assay, a titration of LB-100 and/or Nivolumab was added. After 3 days, LB-100 was replenished to the final indicated concentration. After 5 days, culture supernatants were analyzed by ELISA (eBioscience) and cells were analyzed by flow cytometry. At least 3 separate donors were obtained and results of one representative donor were reported.

[4] = test system: Primary human T cells and Jurkat T cells; test: In vitro studies PP2A and CTLA4 (Example 2); type: cell-based
Procedure: Primary human T cells and Jurkat T cells are treated with LB-100 and T-cell activation levels measured. LB-100 increases activation of the T cells.
Primary human T cells and Jurkat T cells are treated with LB-100 and PP2A:CTLA-4 interaction is assessed. LB-100 decreases the interaction of PP2A and CTLA-4.
Primary human T cells and Jurkat T cells are treated with LB-100 and levels of PP2A phosphorylation are measured. LB-100 increases phosphorylation in the T cells.

Structure (SMILES): CN1CCN(C(=O)C2C(C(=O)O)[C@H]3CC[C@@H]2O3)CC1 (stereo partly shown) [LB-100]
- IFNγ secretion in CD4+ T cells [1]: increase
- T cell proliferation in CD8+ and CD4+ cells [1]: dose dependent increase
- Tbet in CD4+ T cells [1]: dose dependent increase
- co-stimulatory molecule OX40 expression on T cells [1]: dose dependent increase
- PD-1 expression on human CD4 T cells ([1]; co-cultured with monocytes derived DC): reduced PD-1 expression
- frequency of GATA3 expressing cells relative to Tbet expressing cells [2]: decreased significantly
- induction of Foxp3 by TGF-β ([2]; 72 hours, dose dependent): significantly impaired
- induction of GATA3 by IL-4 ([2]; 72 hours, dose dependent): significantly impaired
- TNF-α and IL2 secretion ([2]; Th1 and Th2 conditions): increased
- IFN-γ expression ([2]; Th1 and Th2 skewing conditions): dose dependent increase
- Secretion of IL4 ([2]; Th2 conditions): decreased
- enhancement of IFN-γ release ([3]; 0.2 μM): 3.5 fold
- T-bet expression in CD4 T cells ([3]; 1 μM): significantly increased
- enhancement of IFN-γ release ([3]; 1 μM): 4 fold
- CD4 T cell proliferation, percentage of dividing cells ([3]; 1 μM, day 5, controls 20%): 31%
- CD4 T cell proliferation ([3]; 5 μM): impaired
- PP2A:CTLA-4 interaction [4]: decreases
- T-cell activation levels [4]: increases
- levels of PP2A phosphorylation in the T cells [4]: increases
